# Data from ChEMBL document CHEMBL3091422, “Endothelial lipase inhibitors for the treatment of atherosclerosis and cardiovascular disorders” (ACS Med Chem Lett, 2013).
# Experiments:
# [1] = target: T1, Endothelial lipase (Mus musculus, UniProt Q9WVG5); experiment: Inhibition of mouse endothelial lipase using PLAi as substrate measured for 30 mins by cell-based fluorescence assay
# T1 sequence (Q9WVG5 whole entry): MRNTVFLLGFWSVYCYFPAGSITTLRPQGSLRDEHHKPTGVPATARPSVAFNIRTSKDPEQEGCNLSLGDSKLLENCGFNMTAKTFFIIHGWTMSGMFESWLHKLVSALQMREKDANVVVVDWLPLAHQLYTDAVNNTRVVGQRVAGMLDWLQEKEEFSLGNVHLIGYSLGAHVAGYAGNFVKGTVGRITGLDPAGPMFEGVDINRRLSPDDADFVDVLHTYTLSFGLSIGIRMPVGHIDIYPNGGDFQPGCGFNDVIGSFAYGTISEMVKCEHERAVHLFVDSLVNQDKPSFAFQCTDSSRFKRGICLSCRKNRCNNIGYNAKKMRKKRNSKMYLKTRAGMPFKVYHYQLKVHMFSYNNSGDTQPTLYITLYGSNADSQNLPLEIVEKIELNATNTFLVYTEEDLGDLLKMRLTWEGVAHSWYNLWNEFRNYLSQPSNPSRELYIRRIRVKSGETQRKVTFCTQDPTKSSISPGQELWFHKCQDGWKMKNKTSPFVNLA
# [2] = target: T2, Endothelial lipase (Homo sapiens, UniProt Q9Y5X9); experiment: Inhibition of human endothelial lipase using PLAi as substrate measured for 30 mins by cell-based fluorescence assay
# T2 sequence (Q9Y5X9 whole entry): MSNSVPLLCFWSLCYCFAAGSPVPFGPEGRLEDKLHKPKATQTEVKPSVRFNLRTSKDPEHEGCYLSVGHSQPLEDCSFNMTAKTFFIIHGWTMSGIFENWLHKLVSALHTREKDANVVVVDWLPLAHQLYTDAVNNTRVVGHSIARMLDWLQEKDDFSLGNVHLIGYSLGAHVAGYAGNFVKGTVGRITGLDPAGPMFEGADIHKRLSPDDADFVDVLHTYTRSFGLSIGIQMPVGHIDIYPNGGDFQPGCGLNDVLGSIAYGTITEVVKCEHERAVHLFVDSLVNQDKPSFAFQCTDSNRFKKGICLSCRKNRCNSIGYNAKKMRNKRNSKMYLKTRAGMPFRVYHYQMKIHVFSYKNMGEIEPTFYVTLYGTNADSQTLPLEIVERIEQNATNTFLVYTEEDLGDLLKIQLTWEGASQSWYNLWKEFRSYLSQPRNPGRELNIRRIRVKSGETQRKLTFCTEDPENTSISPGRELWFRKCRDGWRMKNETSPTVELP
IC50 [1] [nM],IC50 [2] [nM],SMILES
33300,33300,FC(F)(F)c1c(CCCc2ccccc2)n2c3c(cccc13)SCC2
17,14,COc1cc2c3c(c1)c(C(F)(F)F)c(CCc1ccccc1)n3CCC2
4,4,Nc1cc2c3c(c1)c(C(F)(F)F)c(CCCc1ccccc1)n3CCC2
